PubChem BioAssay AID328 (DTP/NCI, 2004)
“And” between values parts separate entries of the source, which are not always exact repeats. Equal entries are not always repeated. Inconclusive results and toxic doses are left out.

Test system: BDF1 mice, P388 leukemia ip, median survival T/C
Test: NCI In Vivo Anticancer Drug Screen. Data for tumor model P388 Leukemia (intraperitoneal) in B6D2F1 (BDF1) mice
Conditions: endpoint: median survival time, higher = longer survival
How it was run: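 Each value expresses how treatment altered survival: treated-mouse outcome over vehicle-mouse outcome, both groups bearing the transplanted tumour.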

[1] = dose: 50.0 mg/kg/injection, schedule: Q01DX009 (ip), vehicle: saline with Tween-80
[2] = dose: 100.0 mg/kg/injection, schedule: Q01DX009 (ip), vehicle: saline with Tween-80
[3] = dose: 132.0 mg/kg/injection, schedule: Q01DX009 (ip), vehicle: saline with Tween-80
[4] = dose: 200.0 mg/kg/injection, schedule: Q01DX009 (ip), vehicle: saline with Tween-80
[5] = dose: 300.0 mg/kg/injection, schedule: Q01DX009 (ip), vehicle: saline with Tween-80
[6] = dose: 100.0 mg/kg/injection, schedule: Q01DX009 (ip), vehicle: Klucel (hydroxypropylcellulose) (HPC)
[7] = dose: 200.0 mg/kg/injection, schedule: Q01DX009 (ip), vehicle: Klucel (hydroxypropylcellulose) (HPC)
[8] = dose: 100.0 mg/kg/injection, schedule: Q04DX003 (ip), vehicle: saline
[9] = dose: 50.0 mg/kg/injection, schedule: Q01DX009 (ip), vehicle: Klucel (hydroxypropylcellulose) (HPC)
[10] = dose: 100.0 mg/kg/injection, schedule: Q04DX003 (ip), vehicle: saline with Tween-80
[11] = dose: 200.0 mg/kg/injection, schedule: Q04DX003 (ip), vehicle: saline with Tween-80
[12] = dose: 400.0 mg/kg/injection, schedule: Q04DX003 (ip), vehicle: saline with Tween-80

## COc1cccc2c1C(=O)c1c(O)c3c(c(O)c1C2=O)C[C@@](O)(/C(C)=N/NC(=O)c1cccc([N+](=O)[O-])c1)C[C@@H]3OC1CC(N)C(O)C(C)O1 (stereo partly specified)
dose: 0.25 mg/kg/injection, schedule: Q01DX009 (ip), vehicle: water
  T/C: 152 % of control
dose: 0.5 mg/kg/injection, schedule: Q01DX009 (ip), vehicle: water
  T/C: 163 % of control
dose: 1.0 mg/kg/injection, schedule: Q01DX009 (ip), vehicle: water
  T/C: 166 % of control and 191 % of control
dose: 2.0 mg/kg/injection, schedule: Q01DX009 (ip), vehicle: water
  T/C: 156 % of control and 214 % of control
dose: 4.0 mg/kg/injection, schedule: Q01DX009 (ip), vehicle: water
  T/C: 244 % of control and 184 % of control
dose: 8.0 mg/kg/injection, schedule: Q01DX009 (ip), vehicle: water
  T/C: 169 % of control

## CC[P+]1(c2ccccc2)CCCc2ccc3ccccc3c21 (stereo unspecified)
dose: 1.56 mg/kg/injection, schedule: Q01DX009 (ip), vehicle: saline
  T/C: 116 % of control
dose: 3.12 mg/kg/injection, schedule: Q01DX009 (ip), vehicle: saline
  T/C: 120 % of control
dose: 30.0 mg/kg/injection, schedule: Q01DX009 (ip), vehicle: saline
  T/C: 90 % of control

## ClCc1ccc2ccccc2n1
[1]
  T/C: 113 % of control
[2]
  T/C: 122 % of control
[3]
  T/C: 113 % of control
[4]
  T/C: 122 % of control
[5]
  T/C: 104 % of control

## [N-]=[N+]=C1C(=O)NC(=O)N2C3CC(O)C(COC12)O3 (stereo unspecified)
[3]
  T/C: 154 % of control
[4]
  T/C: 159 % of control and 170 % of control
[5]
  T/C: 170 % of control and 177 % of control

## BrC1C2CC3C(C2)C13 (stereo unspecified)
[6]
  T/C: 100 % of control
[7]
  T/C: 86 % of control
dose: 400.0 mg/kg/injection, schedule: Q01DX009 (ip), vehicle: Klucel (hydroxypropylcellulose) (HPC)
  T/C: 109 % of control

## O=C1C=C(C2CCCCC2)C(=O)C2CCCCC12 (stereo unspecified)
[8]
  T/C: 110 % of control
dose: 200.0 mg/kg/injection, schedule: Q04DX003 (ip), vehicle: saline
  T/C: 105 % of control
dose: 400.0 mg/kg/injection, schedule: Q04DX003 (ip), vehicle: saline
  T/C: 120 % of control

## CN1C(=O)CC2(CCN(CCCC(=O)c3ccc(F)cc3)CC2)C1=O
dose: 6.25 mg/kg/injection, schedule: Q01DX009 (ip), vehicle: saline with Tween-80
  T/C: 116 % of control
dose: 12.5 mg/kg/injection, schedule: Q01DX009 (ip), vehicle: saline with Tween-80
  T/C: 107 % of control
dose: 25.0 mg/kg/injection, schedule: Q01DX009 (ip), vehicle: Klucel (hydroxypropylcellulose) (HPC)
  T/C: 118 % of control
dose: 25.0 mg/kg/injection, schedule: Q01DX009 (ip), vehicle: saline with Tween-80
  T/C: 124 % of control
[9]
  T/C: 120 % of control
[1]
  T/C: 97 % of control

## CCCCCC#CC(=O)O
[1]
  T/C: 99 % of control
[2]
  T/C: 100 % of control
[4]
  T/C: 90 % of control

## O=C(CO)Nc1ccc(Br)cc1
[9]
  T/C: 94 % of control
[6]
  T/C: 104 % of control
[7]
  T/C: 86 % of control

## COc1cc([C@@H]2Oc3cc([C@@H]4Oc5cc(O)cc(O)c5C(=O)[C@H]4O)ccc3O[C@H]2CO)ccc1O
[10]
  T/C: 107 % of control
[11]
  T/C: 93 % of control
[12]
  T/C: 97 % of control

## CCCCNC(C)(C)C(=O)c1cccs1
dose: 25.0 mg/kg/injection, schedule: Q01DX009 (ip), vehicle: saline
  T/C: 100 % of control
dose: 50.0 mg/kg/injection, schedule: Q01DX009 (ip), vehicle: saline
  T/C: 100 % of control
dose: 50.0 mg/kg/injection, schedule: Q04DX003 (ip), vehicle: saline
  T/C: 100 % of control
dose: 100.0 mg/kg/injection, schedule: Q01DX009 (ip), vehicle: saline
  T/C: 100 % of control
[8]
  T/C: 118 % of control

## Cc1ccc(NC(=O)c2ccccc2C(=O)O)c(C)c1
[10]
  T/C: 100 % of control
[11]
  T/C: 100 % of control
[12]
  T/C: 118 % of control
